Molecules are shown by their SMILES.

In one series the test system is human skin. As to the kind of experiment: Mitigation of irritation by inorganic base (inventors' research). The series is classed as in vivo. Conditions: as third salt (metal oxide).
The conditions of series [1]: at 30° C.; cited from earlier work.

With `[O]=[Zn]` [zinc oxide], the mitigating irritation result with human skin is listed as “ineffective”. In addition, the water solubility in series [1] was 1.6 µg/mL.

The record behind these values is patent US10342749B2, “Antiperspirant compositions comprising alums” (Conopco, Inc., priority 2014, dated 2019).
